{
  "source": "patent US20120136033A1",
  "about": "“Small Molecule Antagonists of Phosphatidylinositol-3,4,5-Triphosphate (PIP3) and Uses Thereof” (President and Fellows of Harvard College, priority 2009, published 2012)",
  "key": {"[1]": {"target": "T1, R86A mutant of the Akt PH domain (Homo sapiens, UniProt P31749, R86A)", "T1 construct": "Human Akt PH domain a.a; 1-123; His6 (N); made in house; host or cells: E. coli BL21(DE3)", "T1 sequence (P31749 1-123 R86A)": "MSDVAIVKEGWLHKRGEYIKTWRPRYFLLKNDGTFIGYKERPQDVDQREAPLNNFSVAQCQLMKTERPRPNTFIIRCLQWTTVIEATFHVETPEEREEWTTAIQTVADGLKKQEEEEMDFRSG", "test": "NMR HSQC, R86A mutant of the PH domain", "assay_type": "binding"}, "Bcl-xL": {"target": "Bcl-xL (Homo sapiens, UniProt Q07817)", "sequence (Q07817 whole entry, species assumed)": "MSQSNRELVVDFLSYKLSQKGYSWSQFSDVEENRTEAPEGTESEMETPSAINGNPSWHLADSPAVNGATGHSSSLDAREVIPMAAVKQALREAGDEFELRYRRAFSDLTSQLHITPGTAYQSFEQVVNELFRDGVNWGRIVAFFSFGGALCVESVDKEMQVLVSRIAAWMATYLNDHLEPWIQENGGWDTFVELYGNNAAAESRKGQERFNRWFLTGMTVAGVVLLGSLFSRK", "test": "NMR HSQC specificity control, Bcl-xL", "assay_type": "binding"}, "eIF-1": {"target": "eIF-1 (Homo sapiens, UniProt P41567)", "sequence (P41567 whole entry, species assumed)": "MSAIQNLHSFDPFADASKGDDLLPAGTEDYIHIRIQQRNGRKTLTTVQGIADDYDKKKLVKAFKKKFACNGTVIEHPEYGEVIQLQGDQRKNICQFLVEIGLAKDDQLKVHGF", "test": "NMR HSQC specificity control, eIF-1", "assay_type": "binding"}, "U87MG cells": {"test_system": "U87MG cells", "test": "long-term colony formation by U87MG cells", "assay_type": "cell-based, human"}, "[2]": {"test_system": "U87MG cells (R130M PTEN vs wt PTEN)", "test": "Sytox cell death assay, U87MG expressing wild-type or R130M inactive PTEN", "assay_type": "cell-based, human", "conditions": "25, 50, 100 μM, 48 hr", "method": "After treatment with 25, 50, or 100 μM PIT-1 for 48 hr, cell death was analyzed using Sytox cell death assay.\nBased on the critical role of PIP3-dependent Akt signaling in the regulation of cell survival, the effect of PIT-1 on the cancer cell viability was tested. Cancer cells were seeded into 96-well plates (white plates for ATP assay; black plates for fluorescent assay; clear plates for MTS assay) at the density of 5-10×10^3 cells per well in 100 μl of the appropriate media. Compounds were added at a series of concentrations and incubated for different times. For the ATP assay, a luminescence-based commercial kit (CellTiter-Glo, Promega, Madison, Wis.) was used. Thirty microliters of cell lysis/ATP detection reagent was added to each well, mixed for 10 min at room temperature, and the luminescence was measured using a Wallac Victor 3 plate reader (Perkin-Elmer, Wellesley, Mass.). […] Twenty microliters of the combined MTS/PMS solution was added into each well, incubated for 4 hr at 37° C., and the absorbance at 490 nm was measured using a Wallac Victor 3 plate reader. For the Sytox cell death assay, measuring loss of plasma membrane integrity, cells were incubated with 1 μM Sytox Green reagent (Molecular Probes, Eugene, Oreg.) for 30 min at 37° C. and the fluorescence intensity was measured using Wallac Victor 3 plate reader with excitation at 485 nm and emission at 545 nm. […]"}, "caspase-3": {"test_system": "caspase-3", "test": "Western blot of caspase-3 cleavage and PARP processing", "assay_type": "cell-based", "description": "Since PI3K/PIP3/Akt signaling plays a critical role in the inhibition of apoptosis (Datta S R et al. (1999) Genes Dev 13:2905-27), the possibility that PITs induce apoptosis was examined. […] Proapoptotic Bcl-2 family members Bax and Bak are important mediators of apoptosis. Wei M C et al. (2001) Science 292:727-30. […] Non-apoptotic mechanisms of cell death may also play some additional, albeit less important, role in PIT-induced killing, as some cell death was still observed in Bax/Bak-deficient cells and in the presence of zVAD.fmk."}, "[3]": {"test_system": "AMP-activated protein kinase (AMPK)", "test": "phosphorylation of AMPK and ACC (metabolic stress)", "assay_type": "cell-based", "description": "Changes in cell metabolism have emerged in recent years as an important component of PI3K/PIP3/Akt signaling, contributing to the regulation of cell viability and transformation by the PI3K/Akt pathway. Datta S R et al. (1999) Genes Dev 13:2905-27; Elstrom R L et al. (2004) Cancer Res 64:3892-9. Therefore, the possibility that PIT-1 may cause dysregulation of energy homeostasis and induction of the metabolic stress in cancer cells, which may contribute to the PIT-induced cell death, was investigated. […] Hardie D G (2007) Nat Rev Mol Cell Biol 8:774-85. […] Mathew R et al. (2007) Nat Rev Cancer 7:961-7. […] Takeuchi H et al. (2005) Cancer Res 65:3336-46."}, "[4]": {"test_system": "PI3K/PDK1/Akt signaling pathway", "test": "PI3K/PDK1/Akt signaling in HUVEC, Western blotting", "assay_type": "cell-based, human", "conditions": "50, 100, 200 μM, 2 hr, bFGF", "method": "Endothelial cell migration plays a central role in tumor angiogenesis. Avraamides C J et al. (2008) Nat Rev Cancer 8:604-17. […] First, human umbilical vein endothelial cells (HUVEC) cells were serum starved overnight, and treated with different concentrations of PIT-1 (50, 100 and 200 μM) for 2 hr, followed by stimulation with 10 ng/ml bFGF for 15 min, and the PIP3-dependent phosphorylation events were evaluated by Western blotting."}, "rat aortic rings": {"test_system": "rat aortic rings", "test": "rat aortic ring microvessel outgrowth assay", "assay_type": "cell-based", "conditions": "144 h; rat aortic rings in matrigel, 6 days, 3.125-100 μM; read-out: IC50, microvessel outgrowth in aortic ring sprouting", "method": "For the aortic ring assay, aortas were isolated from 6-week old Sprague-Dawley rats and immediately transferred to a culture dish with serum-free medium. The fibroadipose tissue around the aortas was carefully removed and the aortas were cut into 1-mm long aortic ring fragments. After three consecutive washes in serum-free medium, the aortic rings were embedded into 70 μl Matrigel in 96-well plate and fed with 100 μl of serum-free M199 medium with or without PIT-1 at different concentrations (3.125-100 μM). The medium was replaced every 24 hr. Phase-contrast images were obtained on day 6, and the numbers of microvessel outgrowths per ring were counted.\nMicrovessel growth from rat aorta sections is the result of a combination of endothelial cell proliferation, migration, and tube formation, and thus provides a close approximation of in vivo angiogenesis. For this experiment the rat aortic rings were embedded in matrigel and then were treated with PIT-1 (3.125-100 μM) for 6 days, followed by counting the number of microvessel outgrowths under microscope."}},
  "data": [
    {"smiles": "O=C(NC(=S)Nc1cc([N+](=O)[O-])cc(Cl)c1O)c1ccccc1", "note": "[PIT-1]", "values": [
      {"measurement": "effect on HSQC of R86A mutant PH domain", "setting": "[1]", "result": "had no effect"},
      {"measurement": "changes in HSQC spectrum of Bcl-xL", "setting": "Bcl-xL", "result": "did not elicit any changes"},
      {"measurement": "changes in HSQC spectrum of eIF-1", "setting": "eIF-1", "result": "did not elicit any changes"},
      {"measurement": "long-term colony formation by U87MG cells", "setting": "U87MG cells", "result": "suppressed long-term colony formation"},
      {"measurement": "toxicity in U87MG cells lacking PTEN activity compared to wt PTEN-expressing cells", "setting": "[2]", "result": "more pronounced"},
      {"measurement": "cleavage/activation of caspase-3 and processing of PARP", "setting": "caspase-3", "result": "induced the cleavage/activation"},
      {"measurement": "phosphorylation of AMPK", "setting": "[3]", "result": "significant increase in the phosphorylation"},
      {"measurement": "phosphorylation of acetyl-CoA carboxylase (ACC)", "setting": "[3]", "result": "Increased phosphorylation"},
      {"measurement": "PI3K/PDK1/Akt signaling pathway in HUVEC", "setting": "[4]", "result": "capable of blocking"},
      {"measurement": "IC50", "setting": "rat aortic rings", "result": 4.58, "unit": "µM"}
    ]}
  ]
}
